The structures appear in SMILES notation.

The conditions of series [1]: earlier pharmacokinetic studies; cited from earlier work.
Another series has as its system CYPs. To be noted: earlier pharmacokinetic studies; cited from earlier work.
A further series is described as follows: PAMPA-BBB assay. To be noted: in-house conditions; 17 h, 200 μM, 25 °C, triplicate.

Regarding `CNCCCc1cncc(CCc2cc(C)cc(N)n2)c1` [Compound 6], the human microsome metabolism result in series [1] is on record as “little”. The CYPs inhibition result with CYPs is listed as “very poor”.
As for `CNCc1cccc(-c2cncc(CCc3cc(C)cc(N)n3)c2)c1` [Compound 16, 4-Methyl-6-(2-(5-(3-((methylamino)methyl)phenyl)pyridin-3-yl)ethyl)pyridin-2-amine], the “Determined Pe” value in “PAMPA-BBB assay” is 5.56 10^−6 cm s^−1.
Regarding `CNCc1cccc(-c2cc(F)cc(CCc3cc(C)cc(N)n3)c2)c1` [Compound 18, 6-(2-(5-Fluoro-3′-((methylamino)methyl)-[1,1′-biphenyl]-3-yl)ethyl)-4-methylpyridin-2-amine], in the series “PAMPA-BBB assay”, the “Determined Pe” value is recorded as 17.41 10^−6 cm s^−1.
`CNCCCN1c2ccccc2CCc2ccccc21` [Desipramine]: the “Determined Pe” value in the series “PAMPA-BBB assay” was 20.52 ± 0.64 10^−6 cm s^−1.
Still for that read-out and setting: the figure for `Cn1c(=O)c2[nH]cnc2n(C)c1=O.O` [Theophylline] is 0.15 ± 0.04 10^−6 cm s^−1.

The values above are taken from publication PMC5699933 (Journal of medicinal chemistry, 2017).
